Data reported in patent US20250346593A1, “IMIDAZO(1,2-1)PYRIDINE DERIVATIVES AS RIPK2 INHIBITORS” (Interline Therapeutics, Inc., priority 2022, published 2025).
Where two headings read alike, the source gives them in different places.

How the values were obtained:
[1] = system: NF-κB pathway (SEAP) in THP1-Dual cells; experiment: THP-1 Dual cell SEAP assay (L18-MDP stimulated); format: cell-based; conditions: Homo sapiens, THP1-Dual, read-out: NFkB THP1 IC50
[2] = molecular target: GST-RIPK2 fusion protein (human RIPK2 amino acids 1-310) (Homo sapiens (Human), UniProt O43353); experiment: RIPK2 binding competition assay (TR-FRET, Tracer 199)
[3] = read-out: RIPK2 IC50, RIPK2 binding competition assay

Chain of GST-RIPK2 fusion protein (human RIPK2 amino acids 1-310) (O43353 1-310): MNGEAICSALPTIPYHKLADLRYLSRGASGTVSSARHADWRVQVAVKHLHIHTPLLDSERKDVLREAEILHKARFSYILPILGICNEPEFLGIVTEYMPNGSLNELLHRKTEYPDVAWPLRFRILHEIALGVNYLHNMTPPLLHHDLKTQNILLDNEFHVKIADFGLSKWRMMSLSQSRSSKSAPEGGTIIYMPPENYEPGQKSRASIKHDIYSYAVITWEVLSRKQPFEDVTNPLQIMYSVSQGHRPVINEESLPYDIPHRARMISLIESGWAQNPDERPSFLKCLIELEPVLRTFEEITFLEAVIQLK

Compound	IC50 [1] [nM]	IC50 [2] [nM]	IC50 [2, 3] [nM]
COc1cc2ncc(-c3cc(F)c(N)nc3OC)n2cc1S(=O)(=O)C(C)(C)C [Example 106, 5-(6-(tert-butylsulfonyl)-7-methoxyimidazo[1,2-a]pyridin-3-yl)-3-fluoro-6-methoxypyridin-2-amine]	250 to 1000	2.5 to 20	–
COc1cc2ncc(-c3cc(C#N)c(N)nc3F)n2cc1S(=O)(=O)C(C)(C)C [Example 107, 2-amino-5-(6-(tert-butylsulfonyl)-7-methoxyimidazo[1,2-a]pyridin-3-yl)-6-fluoronicotinonitrile]	> 1000	2.5 to 20	–
COc1cc2ncc(-c3ccc(N)nc3C#N)n2cc1S(=O)(=O)C(C)(C)C [Example 108, 6-amino-3-(6-(tert-butylsulfonyl)-7-methoxyimidazo[1,2-a]pyridin-3-yl)picolinonitrile]	> 1000	–	> 20
COc1cc2ncc(-c3cnc(N)c(C)n3)n2cc1S(=O)(=O)C(C)(C)C [Example 109, 5-(6-(tert-butylsulfonyl)-7-methoxyimidazo[1,2-a]pyridin-3-yl)-3-methylpyrazin-2-amine]	> 1000	–	> 20
COc1cn2ncc(-c3cc(C#N)c(N)nc3F)c2cc1S(=O)(=O)C(C)(C)C [Example 110, 2-amino-5-(5-(tert-butylsulfonyl)-6-methoxypyrazolo[1,5-a]pyridin-3-yl)-6-fluoronicotinonitrile]	> 1000	2.5 to 20	–
COc1cc2ncc(-c3cc(F)c(N)c(C)c3F)n2cc1S(=O)(=O)C(C)(C)C [Example 111, 4-(6-(tert-butylsulfonyl)-7-methoxyimidazo[1,2-a]pyridin-3-yl)-3,6-difluoro-2-methylaniline]	50 to 250	1 to 2.5	–
CCOc1nc(N)c(F)cc1-c1cnc2cc(OC)c(S(=O)(=O)C(C)(C)C)cn12 [Example 112, 5-(6-(tert-butylsulfonyl)-7-methoxyimidazo[1,2-a]pyridin-3-yl)-6-ethoxy-3-fluoropyridin-2-amine]	> 1000	2.5 to 20	–
COc1cc2ncc(-c3cc(F)c(N)nc3OC(C)C)n2cc1S(=O)(=O)C(C)(C)C [Example 113, 5-(6-(tert-butylsulfonyl)-7-methoxyimidazo[1,2-a]pyridin-3-yl)-3-fluoro-6-isopropoxypyridin-2-amine]	> 1000	–	> 20
CCOc1cn2ncc(-c3cc(Cl)c(N)nc3F)c2cc1S(=O)(=O)C(C)(C)C [Example 114, 5-(5-(tert-butylsulfonyl)-6-ethoxypyrazolo[1,5-a]pyridin-3-yl)-3-chloro-6-fluoropyridin-2-amine]	50 to 250	1 to 2.5	–
CCOc1cn2ncc(-c3cc(F)c(N)nc3F)c2cc1S(=O)(=O)C(C)(C)C [Example 115, 5-(5-(tert-butylsulfonyl)-6-ethoxypyrazolo[1,5-a]pyridin-3-yl)-3,6-difluoropyridin-2-amine]	250 to 1000	2.5 to 20	–
CC(C)(C)S(=O)(=O)c1cn2c(-c3cc(F)c(N)nc3F)cnc2cc1OC(F)F [Example 116, 5-(6-(tert-butylsulfonyl)-7-(difluoromethoxy)imidazo[1,2-a]pyridin-3-yl)-3,6-difluoropyridin-2-amine]	> 1000	2.5 to 20	–
CCOc1cc2ncc(-c3cnc(N)c(F)c3)n2cc1S(=O)(=O)C(C)C [Example 117, 5-[6-ethoxy-5-(isopropylsulfonyl)-1,3a-diaza-3-indenyl]-3-fluoro-2-pyridylamine]	> 1000	–	> 20
CCOc1cc2ncc(-c3cc(Cl)c(N)nc3F)n2cc1S(=O)(=O)C(C)C [Example 118, 3-chloro-5-[6-ethoxy-5-(isopropylsulfonyl)-1,3a-diaza-3-indenyl]-6-fluoro-2-pyridylamine]	250 to 1000	2.5 to 20	–
CCOc1cc2ncc(-c3cc(F)c(N)nc3F)n2cc1S(=O)(=O)C(C)C [Example 119, 5-[6-ethoxy-5-(isopropylsulfonyl)-1,3a-diaza-3-indenyl]-3,6-difluoro-2-pyridylamine]	> 1000	2.5 to 20	–
CCOc1cc2ncc(-c3ccc(N)nc3F)n2cc1S(=O)(=O)C(C)C [Example 120, 5-[6-ethoxy-5-(isopropylsulfonyl)-1,3a-diaza-3-indenyl]-6-fluoro-2-pyridylamine]	> 1000	–	> 20
Nc1nc(F)c(-c2cnc3ccccn23)cc1F [Example 121, 5-(1,3a-diaza-3-indenyl)-3,6-difluoro-2-pyridylamine]	> 1000	–	> 20
COc1cc2ncc(-c3cc(F)c(N)nc3F)n2cc1C1(F)CCN(C)CC1 [Example 122, 3,6-difluoro-5-[5-(4-fluoro-1-methyl-4-piperidyl)-6-methoxy-1,3a-diaza-3-indenyl]-2-pyridylamine]	> 1000	–	> 20

Compound	IC50 [1] [nM]	IC50 [2] [nM]	IC50 [2, 3] [nM]
COc1cc2ncc(-c3cc(F)c(N)nc3F)n2cc1S(=O)(=O)C(C)(C)CF [Example 123, 3,6-difluoro-5-[5-(2-fluoro-1,1-dimethylethylsulfonyl)-6-methoxy-1,3a-diaza-3-indenyl]-2-pyridylamine]	> 1000	–	> 20
CCCS(=O)(=O)Nc1cc(-c2cnc3cc(OC)c(S(=O)(=O)C(C)(C)C)cn23)cn(C)c1=O [Example 124, N-(5-(6-(tert-butylsulfonyl)-7-methoxyimidazo[1,2-a]pyridin-3-yl)-1-methyl-2-oxo-1,2-dihydropyridin-3-yl)propane-1-sulfonamide]	> 1000	2.5 to 20	–
COc1cc2ncc(-c3cc(NCCCO)c(=O)n(C)c3)n2cc1S(=O)(=O)C(C)(C)C [Example 125, 5-(6-(tert-butylsulfonyl)-7-methoxyimidazo[1,2-a]pyridin-3-yl)-3-((3-hydroxypropyl)amino)-1-methylpyridin-2(1H)-one]	50 to 250	2.5 to 20	–
COc1cc(N)cc(-c2cnc3cc(OC)c(S(=O)(=O)C(C)(C)C)cn23)n1 [Example 126, 2-(6-(tert-butylsulfonyl)-7-methoxyimidazo[1,2-a]pyridin-3-yl)-6-methoxypyridin-4-amine]	> 1000	–	> 20
COc1cc2ncc(-c3ccc(F)c(N)c3)n2cc1S(=O)(=O)C(C)(C)C [Example 127, 5-(6-(tert-butylsulfonyl)-7-methoxyimidazo[1,2-a]pyridin-3-yl)-2-fluoroaniline]	> 1000	–	> 20
COc1cc2ncc(-c3cnc(N)c(N)n3)n2cc1S(=O)(=O)C(C)(C)C [Example 128, 5-(6-(tert-butylsulfonyl)-7-methoxyimidazo[1,2-a]pyridin-3-yl)pyrazine-2,3-diamine]	> 1000	–	> 20
COc1cc2ncc(-c3cc(F)nc(OCCCO)c3)n2cc1S(=O)(=O)C(C)(C)C [Example 129, 3-({6-fluoro-4-[7-methoxy-6-(2-methylpropane-2-sulfonyl)imidazo[1,2-a]pyridin-3-yl]pyridin-2-yl}oxy)propan-1-ol]	> 1000	–	> 20
CCCS(=O)(=O)Nc1cc(-c2cnc3cc(OC)c(S(=O)(=O)C(C)(C)C)cn23)ccc1OC [Example 130, N-{2-methoxy-5-[7-methoxy-6-(2-methylpropane-2-sulfonyl)imidazo[1,2-a]pyridin-3-yl]phenyl}propane-1-sulfonamide]	250 to 1000	1 to 2.5	–
CCCS(=O)(=O)Nc1cc(OC)cc(-c2cnc3cc(OC)c(S(=O)(=O)C(C)(C)C)cn23)c1 [Example 131, N-{3-methoxy-5-[7-methoxy-6-(2-methylpropane-2-sulfonyl)imidazo[1,2-a]pyridin-3-yl]phenyl}propane-1-sulfonamide]	< 50	–	< 1
CCCS(=O)(=O)Nc1cc(OC)cc(-c2cnc3cc(OCC)c(S(=O)(=O)C(C)C)cn23)c1 [Example 132, N-{3-[7-ethoxy-6-(propane-2-sulfonyl)imidazo[1,2-a]pyridin-3-yl]-5-methoxyphenyl}propane-1-sulfonamide]	50 to 250	–	< 1
CCCS(=O)(=O)Nc1cc(-c2cnc3cc(OCC)c(S(=O)(=O)C(C)C)cn23)ccc1OC [Example 133, N-{5-[7-ethoxy-6-(propane-2-sulfonyl)imidazo[1,2-a]pyridin-3-yl]-2-methoxyphenyl}propane-1-sulfonamide]	250 to 1000	2.5 to 20	–
CCCS(=O)(=O)Nc1cc(-c2cnc3cc(OC)c(S(=O)(=O)C(C)(C)C)cn23)ccc1OC(F)(F)F [Example 134, N-{5-[7-methoxy-6-(2-methylpropane-2-sulfonyl)imidazo[1,2-a]pyridin-3-yl]-2-(trifluoromethoxy)phenyl}propane-1-sulfonamide]	250 to 1000	2.5 to 20	–
CCCS(=O)(=O)Nc1cc(OC(F)(F)F)cc(-c2cnc3cc(OC)c(S(=O)(=O)C(C)(C)C)cn23)c1 [Example 135, N-{3-[7-methoxy-6-(2-methylpropane-2-sulfonyl)imidazo[1,2-a]pyridin-3-yl]-5-(trifluoromethoxy)phenyl}propane-1-sulfonamide]	> 1000	2.5 to 20	–
CCCS(=O)(=O)Nc1cc(-c2cnc3cc(OC)c(S(=O)(=O)C(C)(C)C)cn23)cc(OC)c1C [Example 136, N-(5-(6-(tert-Butylsulfonyl)-7-methoxyimidazo[1,2-a]pyridin-3-yl)-3-methoxy-2-methylphenyl)propane-1-sulfonamide]	> 1000	2.5 to 20	–
CCCS(=O)(=O)Nc1cc(-c2cnc3cc(OC)c(C(=O)N(C)C)cn23)cc(OC)c1OC [Example 137, 3-[3,4-dimethoxy-5-(propane-1-sulfonamido)phenyl]-7-methoxy-N,N-dimethylimidazo[1,2-a]pyridine-6-carboxamide]	250 to 1000	2.5 to 20	–
CCCS(=O)(=O)Nc1cc(-c2cnc3cc(OC)c(S(=O)(=O)C(C)(C)C)cn23)cc(OC(F)(F)F)c1F [Example 138, N-{2-fluoro-5-[7-methoxy-6-(2-methylpropane-2-sulfonyl)imidazo[1,2-a]pyridin-3-yl]-3-(trifluoromethoxy)phenyl}propane-1-sulfonamide]	> 1000	–	> 20
